Data taken from patent publication US20250361234A1 (NICO THERAPEUTICS, INC., priority 2022, published 2025).

Target: T1, full-length SARM1 (FL-SARM1) (Homo sapiens, UniProt Q6SZW1)
T1 sequence (Q6SZW1 28-724): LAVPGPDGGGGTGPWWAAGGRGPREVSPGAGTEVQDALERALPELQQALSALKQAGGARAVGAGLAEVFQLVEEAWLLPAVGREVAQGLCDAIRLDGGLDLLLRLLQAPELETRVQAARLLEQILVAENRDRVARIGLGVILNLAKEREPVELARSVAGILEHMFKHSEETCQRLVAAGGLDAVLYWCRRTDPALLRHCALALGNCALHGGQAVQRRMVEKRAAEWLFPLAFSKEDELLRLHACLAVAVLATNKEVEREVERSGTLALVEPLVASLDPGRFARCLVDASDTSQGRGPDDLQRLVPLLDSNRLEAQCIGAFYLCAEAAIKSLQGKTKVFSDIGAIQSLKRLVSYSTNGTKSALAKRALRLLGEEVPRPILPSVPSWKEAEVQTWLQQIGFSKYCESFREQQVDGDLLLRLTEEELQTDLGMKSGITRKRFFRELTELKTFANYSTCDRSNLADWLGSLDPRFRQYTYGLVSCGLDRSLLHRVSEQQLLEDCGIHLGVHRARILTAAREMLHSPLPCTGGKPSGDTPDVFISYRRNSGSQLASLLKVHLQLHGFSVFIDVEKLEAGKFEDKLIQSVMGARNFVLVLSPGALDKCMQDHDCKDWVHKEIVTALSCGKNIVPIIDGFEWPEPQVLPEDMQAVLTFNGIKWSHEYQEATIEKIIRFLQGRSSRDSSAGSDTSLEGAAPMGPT
Test: FL-SARM1 cellular lysate assay (NAD/NADH-Glo readout of remaining NAD+)
Settings: SARM1 cellular lysate from transfected HEK293T cells, NAD+ and NMN, 11 point curve

Question: What does the source list for `CCc1ccc(NC(=O)N2[C@@H]3C[C@@H](C)C[C@H]2C3)cc1-c1cncc(F)c1` [Example 82, cis-N-(4-ethyl-3-(5-fluoropyridin-3-yl)phenyl)-3-methyl-6-azabicyclo[3.1.1]heptane-6-carboxamide]?
Answer: IC50 (Activity (μM)): 0.02 µM; IC50 (Activity): 0.0001 to 1 µM

Question: With `O=C(Nc1ccc(F)c(-c2cncc(F)c2)c1)N1C2CCCC1C2` [Example 74, N-(4-fluoro-3-(5-fluoropyridin-3-yl)phenyl)-6-azabicyclo[3.1.1]heptane-6-carboxamide] as the molecule, how does the IC50 (Activity (μM)) read?
Answer: 2.8 µM

Question: What about the IC50 (Activity) of the same molecule?
Answer: 1 to 10 µM

Question: `Cc1ccc(NC(=O)C2CCCN2C2CCC2)cc1-c1cncc(F)c1` (racemic) [Example 103, 1-cyclobutyl-N-[3-(5-fluoropyridin-3-yl)-4-methylphenyl]pyrrolidine-2-carboxamide] was tested. Which IC50 (Activity (μM)) did it give?
Answer: 17.7 µM

Question: What about the IC50 (Activity) of the same molecule?
Answer: > 10 µM

Question: Which results are given for `COC[C@H]1CC[C@H]2CC1N2C(=O)Nc1ccc(C)c(-c2cncc(F)c2)c1` [Example 15, cis-N-(3-(5-fluoropyridin-3-yl)-4-methylphenyl)-2-(methoxymethyl)-6-azabicyclo[3.1.1]heptane-6-carboxamide]?
Answer: IC50 (Activity (μM)): 1.7 µM; IC50 (Activity): 1 to 10 µM

Question: `Cc1ccncc1-c1cc(NC(=O)N2C3CCCC2C3)ccc1C` [Example 91, N-(4-methyl-3-(4-methylpyridin-3-yl)phenyl)-6-azabicyclo[3.1.1]heptane-6-carboxamide] was tested. Which IC50 (Activity (μM)) did it give?
Answer: 0.4 µM

Question: What about the IC50 (Activity) of the same molecule?
Answer: 0.0001 to 1 µM

Question: `Cc1nnc([C@]23C[C@H](C)C[C@H](C2)N3C(=O)Nc2cc(-c3cncc(F)c3)c(Cl)cc2F)o1` (single isomer, unassigned) [Example 132, cis-N-(4-chloro-2-fluoro-5-(5-fluoropyridin-3-yl)phenyl)-3-methyl-1-(5-methyl-1,3,4-oxadiazol-2-yl)-6-azabicyclo[3.1.1]heptane-6-carboxamide] was tested. Which IC50 (Activity (μM)) did it give?
Answer: 0.05 µM

Question: And the IC50 (Activity)?
Answer: 0.0001 to 1 µM

Question: How did the IC50 (Activity (μM)) turn out when `Cc1ccc(NC(=O)N2C3CCCC2C3)cc1-c1cncc(S(C)(=O)=O)c1` [Example 47, N-(4-methyl-3-(5-(methylsulfonyl)pyridin-3-yl)phenyl)-6-azabicyclo[3.1.1]heptane-6-carboxamide] was run?
Answer: 17 µM

Question: What about the IC50 (Activity) of the same molecule?
Answer: > 10 µM

Question: What does the source list for `Cc1ccc(NC(=O)N2C3CCCC2C3)cc1-c1ccnnc1` [Example 63]?
Answer: IC50 (Activity (μM)): 25.9 µM; IC50 (Activity): > 10 µM

Question: Which results are given for `CCO[C@H]1CC2C[C@H](C1)N2C(=O)Nc1ccc(C)c(-c2cncc(F)c2)c1` [Example 39, trans-3-ethoxy-N-(3-(5-fluoropyridin-3-yl)-4-methylphenyl)-6-azabicyclo[3.1.1]heptane-6-carboxamide]?
Answer: IC50 (Activity (μM)): 8.3 µM; IC50 (Activity): 1 to 10 µM

Question: What does the source list for `Cc1ccc(NC(=O)N2C3C[C@H](C#N)C[C@@H]2C3)cc1-c1cncc(F)c1` [Example 49, cis-3-cyano-N-(3-(5-fluoropyridin-3-yl)-4-methylphenyl)-6-azabicyclo[3.1.1]heptane-6-carboxamide]?
Answer: IC50 (Activity (μM)): 0.4 µM; IC50 (Activity): 0.0001 to 1 µM

Question: With `Cc1ccc(NC(=O)[C@@H]2CC2(F)F)cc1-c1cnc(C(F)(F)F)nc1` [Example 113, (1S)-2,2-difluoro-N-[4-methyl-3-[2-(trifluoromethyl)pyrimidin-5-yl]phenyl]cyclopropane-1-carboxamide] as the molecule, how does the IC50 (Activity (μM)) read?
Answer: 34.4 µM

Question: What about the IC50 (Activity) of the same molecule?
Answer: > 10 µM

Question: Which IC50 (Activity (μM)) does the source give for `Cc1ccc(NC(=O)N2CCOc3cccc(C#N)c3C2)cc1-c1cncc(F)c1` [Example 81] here?
Answer: 5.6 µM

Question: What about the IC50 (Activity) of the same molecule?
Answer: 1 to 10 µM

Question: What does the source list for `Cc1ccc(NC(=O)N2C3C[C@@H]2C[C@H](n2cccn2)C3)cc1-c1cncc(F)c1` [Example 27, cis-N-(3-(5-fluoropyridin-3-yl)-4-methylphenyl)-3-(1H-pyrazol-1-yl)-6-azabicyclo[3.1.1]heptane-6-carboxamide]?
Answer: IC50 (Activity (μM)): 14.1 µM; IC50 (Activity): > 10 µM

Question: How did the IC50 (Activity (μM)) turn out when `Cc1ccc(NC(=O)N2C3CCCC2C3)cc1-c1cnccc1C#N` [Example 62, N-(3-(4-cyanopyridin-3-yl)-4-methylphenyl)-6-azabicyclo[3.1.1]heptane-6-carboxamide] was run?
Answer: 1.1 µM

Question: What about the IC50 (Activity) of the same molecule?
Answer: 1 to 10 µM

Question: `COc1cncc(-c2cc(NC(=O)N3C4CCCC3C4)ccc2C)c1` [Example 71, N-(3-(5-methoxypyridin-3-yl)-4-methylphenyl)-6-azabicyclo[3.1.1]heptane-6-carboxamide] was tested. Which IC50 (Activity (μM)) did it give?
Answer: 0.08 µM

Question: And the IC50 (Activity)?
Answer: 0.0001 to 1 µM

Question: What does the source list for `Cc1nnc([C@]23C[C@H](C)C[C@H](C2)N3C(=O)Nc2ccc(C(F)(F)F)c(-c3cncc(F)c3)c2)o1` (single isomer, unassigned) [Example 121, cis-N-(3-(5-fluoropyridin-3-yl)-4-(trifluoromethyl)phenyl)-3-methyl-1-(5-methyl-1,3,4-oxadiazol-2-yl)-6-azabicyclo[3.1.1]heptane-6-carboxamide]?
Answer: IC50 (Activity (μM)): 0.034 µM; IC50 (Activity): 0.0001 to 1 µM

Question: For `COc1ccc(-c2cc(NC(=O)N3[C@@H]4C[C@@H](C)C[C@H]3C4)c(F)cc2Cl)cn1` [Example 131, cis-N-[4-chloro-2-fluoro-5-(6-methoxy-3-pyridinyl)phenyl]-3-methyl-6-azabicyclo[3.1.1]heptane-6-carboxamide], which IC50 (Activity (μM)) is on record?
Answer: 0.7 µM

Question: And the IC50 (Activity)?
Answer: 0.0001 to 1 µM

Question: How did the IC50 (Activity (μM)) turn out when `Cc1ccc(NC(=O)N2C3CC2CC(F)(F)C3)cc1-c1cncc(F)c1` [Example 37, 3,3-difluoro-N-(3-(5-fluoropyridin-3-yl)-4-methylphenyl)-6-azabicyclo[3.1.1]heptane-6-carboxamide] was run?
Answer: 0.5 µM

Question: What about the IC50 (Activity) of the same molecule?
Answer: 0.0001 to 1 µM

Question: What does the source list for `Cc1ccc(NC(=O)N2C3CCCC2C3)cc1-c1cccnc1C#N` [Example 61, N-[3-(2-cyanopyridin-3-yl)-4-methylphenyl]-6-azabicyclo[3.1.1]heptane-6-carboxamide]?
Answer: IC50 (Activity (μM)): 0.8 µM; IC50 (Activity): 0.0001 to 1 µM

Question: What does the source list for `Cc1ccc(NC(=O)N2C3CCCC2C3)cc1-c1cncc(F)c1C` [Example 92, N-(3-(5-fluoro-4-methylpyridin-3-yl)-4-methylphenyl)-6-azabicyclo[3.1.1]heptane-6-carboxamide]?
Answer: IC50 (Activity (μM)): 0.5 µM; IC50 (Activity): 0.0001 to 1 µM

Question: Which IC50 (Activity (μM)) does the source give for `C[C@@H]1CC2C[C@@H](C1)N2C(=O)Nc1ccc(Cl)c(-c2cncc(F)c2)c1` (single isomer, unassigned) [Example 79, trans-N-(4-chloro-3-(5-fluoropyridin-3-yl)phenyl)-3-methyl-6-azabicyclo[3.1.1]heptane-6-carboxamide] here?
Answer: 0.1 µM

Question: And the IC50 (Activity)?
Answer: 0.0001 to 1 µM

Question: Which results are given for `Cc1ccc(NC(=O)N2C3C[C@@H]2C[C@@](C)(C#N)C3)cc1-c1cncc(F)c1` (stereo in doubt) [Example 43, cis-3-cyano-N-(3-(5-fluoropyridin-3-yl)-4-methylphenyl)-3-methyl-6-azabicyclo[3.1.1]heptane-6-carboxamide]?
Answer: IC50 (Activity (μM)): 0.5 µM; IC50 (Activity): 0.0001 to 1 µM

Question: `COc1cncc(-c2cc(NC(=O)N3[C@@H]4C[C@@H](C)C[C@@]3(c3nnc(C)o3)C4)c(F)cc2C(F)(F)F)c1` (single isomer, unassigned) [Example 122, cis-N-(2-fluoro-5-(5-methoxypyridin-3-yl)-4-(trifluoromethyl)phenyl)-3-methyl-1-(5-methyl-1,3,4-oxadiazol-2-yl)-6-azabicyclo[3.1.1]heptane-6-carboxamide] was tested. Which IC50 (Activity (μM)) did it give?
Answer: 10.7 µM

Question: What about the IC50 (Activity) of the same molecule?
Answer: > 10 µM

Question: With `O=C(Nc1ccc(CC(F)F)c(-c2cncc(F)c2)c1)N1C2CCCC1C2` [Example 23, N-(4-(2,2-difluoroethyl)-3-(5-fluoropyridin-3-yl)phenyl)-6-azabicyclo[3.1.1]heptane-6-carboxamide] as the molecule, how does the IC50 (Activity (μM)) read?
Answer: 0.9 µM

Question: And the IC50 (Activity)?
Answer: 0.0001 to 1 µM
